What was measured:
[1] = target: T1, human CB2 (hCB2) (Homo sapiens, UniProt P34972); experiment: 35S GTPγS binding assay, hCB2 agonist; assay type: biochemical
T1 construct: (cDNA clone) CNR0200000
Procedure, shortened: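 Agonist-stimulated [35S]GTPγS (0.1 nM) binding measured by scintillation proximity after 90 min at room temperature. Reaction buffer: 50 mM HEPES pH 7.4, 100 mM NaCl, 5 mM MgCl2, 0.001% saponin plus 20 uM GDP. Membranes (5 μg) came from transfected cells expressing hCB2 cDNA (pcDNA3.1+ vector).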

[2] = target: T2, recombinant human cannabinoid receptor CB1 (Homo sapiens, UniProt P21554); experiment: Cannabinoid receptor radioligand binding assay, [3H]-CP 55,940 displacement, hCB1
T2 construct: (cDNA clone) CNR01L000
T2 sequence (P21554 whole entry): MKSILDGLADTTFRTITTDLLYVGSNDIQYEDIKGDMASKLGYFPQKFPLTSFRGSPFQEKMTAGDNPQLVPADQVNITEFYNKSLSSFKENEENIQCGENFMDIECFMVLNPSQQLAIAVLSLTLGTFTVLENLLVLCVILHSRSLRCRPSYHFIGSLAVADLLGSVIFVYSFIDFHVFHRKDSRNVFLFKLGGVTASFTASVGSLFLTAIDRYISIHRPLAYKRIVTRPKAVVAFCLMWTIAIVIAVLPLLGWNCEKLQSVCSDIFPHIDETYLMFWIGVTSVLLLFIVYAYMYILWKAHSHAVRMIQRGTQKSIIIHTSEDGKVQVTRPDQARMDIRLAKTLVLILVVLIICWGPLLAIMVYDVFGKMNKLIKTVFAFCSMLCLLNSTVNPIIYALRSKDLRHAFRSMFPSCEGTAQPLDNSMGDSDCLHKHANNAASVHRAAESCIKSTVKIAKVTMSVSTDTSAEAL
Procedure, shortened: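 Displacement of 0.5 nM [3H]-CP 55,940 (1 μM unlabeled CP 55,940 for nonspecific) measured by filtration and scintillation counting. Binding ran 90 min at room temperature in pH 7.5 Tris buffer with 0.1% fatty-acid-free BSA, using recombinant hCB1 HEK-293 membranes at 2-10 μg protein.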

[3] = target: T3, recombinant human cannabinoid receptor CB2 (Homo sapiens, UniProt P34972); experiment: Cannabinoid receptor radioligand binding assay, [3H]-CP 55,940 displacement, hCB2
T3 construct: (cDNA clone) CNR0200000
T3 sequence (P34972 whole entry): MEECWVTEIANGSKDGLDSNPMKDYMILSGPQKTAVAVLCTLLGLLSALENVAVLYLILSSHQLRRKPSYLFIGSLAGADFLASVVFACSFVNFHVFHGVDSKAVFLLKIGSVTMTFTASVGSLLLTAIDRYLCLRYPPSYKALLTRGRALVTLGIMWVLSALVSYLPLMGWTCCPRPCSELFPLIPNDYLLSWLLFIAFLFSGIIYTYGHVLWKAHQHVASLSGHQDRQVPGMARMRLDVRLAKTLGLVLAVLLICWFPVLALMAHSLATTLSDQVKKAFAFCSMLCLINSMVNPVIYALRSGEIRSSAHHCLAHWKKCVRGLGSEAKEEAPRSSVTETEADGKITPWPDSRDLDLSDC
Procedure, shortened: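 Receptor source: membrane pellet (40,000×g) from transfected cells, stored in HEPES pH 7.4/MgCl2/EDTA/sucrose buffer.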

T1 sequence (P34972 whole entry): as above

Row | SMILES | EC50 [1] | IC50 [2] | IC50 [3]
1 | COc1ccc(C(=O)c2cc3cc(C)n(CCN4CCOCC4)c3s2)cc1Cl [Compound 116, (3-Chloro-4-methoxyphenyl)(5-methyl-6-(2-morpholinoethyl)-6H-thieno[2,3-b]pyrrol-2-yl)methanone] | < 100 nM | 1000 to 10000 nM | 100 to 1000 nM
2 | COc1ccc(C(=O)c2cc3cc(C)n(CCN4CCCCC4)c3s2)cn1 [Compound 117, (6-Methoxypyridin-3-yl)(5-methyl-6-(2-(piperidin-1-yl)ethyl)-6H-thieno[2,3-b]pyrrol-2-yl)methanone] | < 100 nM | 1000 to 10000 nM | 100 to 1000 nM
3 | CCc1ccc(C(=O)c2cc3cc(C)n(CCN4CCOCC4)c3s2)cc1 [Compound 122, (4-Ethylphenyl)(5-methyl-6-(2-morpholinoethyl)-6H-thieno[2,3-b]pyrrol-2-yl)methanone] | < 100 nM | 1000 to 10000 nM | < 100 nM
4 | Cc1cc2cc(C(=O)c3cccc(Cl)n3)sc2n1CCN1CCOCC1 [Compound 123, (6-Chloropyridin-2-yl)(5-methyl-6-(2-morpholinoethyl)-6H-thieno[2,3-b]pyrrol-2-yl)methanone] | 100 to 1000 nM | 1000 to 10000 nM | 100 to 1000 nM
5 | Cc1ccc(C(=O)c2cc3cc(C)n(CCN4CCOCC4)c3s2)cc1 [Compound 124, (5-Methyl-6-(2-morpholinoethyl)-6H-thieno[2,3-b]pyrrol-2-yl)(p-tolyl)methanone] | < 100 nM | 1000 to 10000 nM | 100 to 1000 nM
6 | Cc1ccc(C(O)c2cc3cc(C)n(CCN4CCOCC4)c3s2)cn1 (stereo not drawn) [Compound 125, (5-Methyl-6-(2-morpholinoethyl)-6H-thieno[2,3-b]pyrrol-2-yl)(6-methylpyridin-3-yl)methanol] | 100 to 1000 nM | > 10000 nM | > 10000 nM
7 | COc1cc(F)c(C(=O)c2cc3cc(C)n(CCN4CCOCC4)c3s2)c(F)c1 [Compound 127, (2,6-difluoro-4-methoxyphenyl)(5-methyl-6-(2-morpholinoethyl)-6H-thieno[2,3-b]pyrrol-2-yl)methanone] | < 100 nM | 1000 to 10000 nM | < 100 nM
8 | Cc1ccc(C(=O)c2cc3cc(C)n(CCN4CCOCC4)c3s2)cn1 [Compound 130, (5-methyl-6-(2-morpholinoethyl)-6H-thieno[2,3-b]pyrrol-2-yl)(6-methylpyridin-3-yl)methanone] | 100 to 1000 nM | > 10000 nM | 1000 to 10000 nM
9 | COc1ccc(C(=O)c2cc3cc(C)n(CCN4CCOCC4)c3s2)nc1 [Compound 131, (5-methoxypyridin-2-yl)(5-methyl-6-(2-morpholinoethyl)-6H-thieno[2,3-b]pyrrol-2-yl)methanone] | < 100 nM | 1000 to 10000 nM | 100 to 1000 nM
10 | Cc1cc2cc(C(=O)c3ccc(N(C)C(=O)OC(C)(C)C)cc3)sc2n1CCN1CCOCC1 [Compound 132, tert-butylmethyl(4-(5-methyl-6-(2-morpholinoethyl)-6H-thieno[2,3-b]pyrrole-2-carbonyl)phenyl)carbamate] | 100 to 1000 nM | 1000 to 10000 nM | 1000 to 10000 nM
11 | CNc1ccc(C(=O)c2cc3cc(C)n(CCN4CCOCC4)c3s2)cc1 [Compound 134, (5-methyl-6-(2-morpholinoethyl)-6H-thieno[2,3-b]pyrrol-2-yl)(4-(methylamino)phenyl)methanone] | 100 to 1000 nM | 1000 to 10000 nM | 100 to 1000 nM
12 | COc1ccc(C(=O)c2cc3cc(C)n(CCN4CCOCC4)c3s2)c(Cl)n1 [Compound 137, (2-chloro-6-methoxypyridinyl-3-yl)(5-methyl-6-(2-morpholinoethyl)-6H-thieno[2,3-b]pyrrol-2-yl)methanone] | < 100 nM | 1000 to 10000 nM | < 100 nM
13 | COc1ccc(C(=O)c2cc3c(Cl)c(C)n(CCN4CCOCC4)c3s2)cc1 [Compound 140, (4-chloro-5-methyl-6-(2-morpholinoethyl)-6H-thieno[2,3-b]pyrrol-2-yl)(4-methoxyphenyl)methanone] | < 100 nM | 1000 to 10000 nM | 100 to 1000 nM
14 | CCN(CC)CCn1c(C)cc2cc(C(=O)c3ccc(OC)nc3)sc21 [Compound 142, (6-(2-(diethylamino)ethyl)-5-methyl-6H-thieno[2,3-b]pyrrol-2-yl)(6-methoxypyridin-3-yl)methanone] | 100 to 1000 nM | > 10000 nM | 1000 to 10000 nM
15 | COc1ccc(C(=O)c2cc3cc(C)n(CC4CCOCC4)c3s2)cn1 [Compound 144, (6-methoxypyridin-3-yl)(5-methyl-6-((tetrahydro-2H-pyran-4-yl)methyl)-6H-thieno[2,3-b]pyrrol-2-yl)methanone] | < 100 nM | 1000 to 10000 nM | 100 to 1000 nM
16 | COc1ccc(C(=O)c2cc3cc(C)n(CC4CCOCC4)c3s2)c(F)c1 [Compound 145, (2-fluoro-4-methoxyphenyl)(5-methyl-6-((tetrahydro-2H-pyran-4-yl)methyl)-6H-thieno[2,3-b]pyrrol-2-yl)methanone] | < 100 nM | 1000 to 10000 nM | < 100 nM
17 | CCOc1ccc(C(=O)c2cc3cc(C)n(CCN4CCOCC4)c3s2)cn1 [Compound 150, (6-Ethoxypyridin-3-yl)(5-methyl-6-(2-morpholinoethyl)-6H-thieno[2,3-b]pyrrol-2-yl)methanone] | 100 to 1000 nM | > 10000 nM | 1000 to 10000 nM
18 | COc1ccc(C(=O)c2cc3cc(C)n(CC4CCC(F)(F)CC4)c3s2)cn1 [Compound 170, (6-((4,4-difluorocyclohexyl)methyl)-5-methyl-6H-thieno[2,3-b]pyrrol-2-yl)(6-methoxypyridin-3-yl)methanone] | < 100 nM | < 100 nM | 100 to 1000 nM

From US20130029970A1 (priority 2009, published 2013)
